Results as given in the supplement of paper PMC10949913.

Assays:
Assay in all cases: area under concentration-response curve (viability) (AUC (a.u.)); higher = less active
Conditions in all cases: 48 h
CU-ACC1 = test system: CU-ACC1
Summary of the method: (§1)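 Library compounds were tested at 11 concentrations against three adrenocortical carcinoma cell lines in 1,536-well plates. CellTiter-Glo luminescence was read after 48 h and normalised per plate to vehicle and empty-well controls. Only inhibitory or non-responding curve classes from fitted concentration-response curves contributed AC50 and area under the curve.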

NCI-H295R = test system: NCI-H295R
Summary of the method: as §1

CU-ACC2 = test system: CU-ACC2
Summary of the method: as §1

Row | SMILES | area under concentration-response curve (CU-ACC1) | area under concentration-response curve (NCI-H295R) | area under concentration-response curve (CU-ACC2)
1 | NC/1=N/C(=O)C2=C([NH]C=C2CCC3=CC=C(C=C3)C(=O)N[C@@H](CCC(O)=O)C(O)=O)N1 | 523 | 537 | 590
2 | C/C1=C2/[N]3[Co+]456([OH])<-[N]7=C1[C@@H](CCC(N)=O)C(C)(C)/C7=C/C1=[N]->4C(=C(/C)C4=[N]->5[C@@](C)([C@H]3[C@H](CC(N)=O)[C@@]2(C)CCC(=O)NC[C@@H](C)OP(=O)([O-])O[C@H]2[C@@H](O)[C@@H](n3c[n]->6c5cc(C)c(C)cc53)O[C@@H]2CO)[C@@](C)(CC(N)=O)[C@@H]4CCC(N)=O)/[C@@](C)(CC(N)=O)[C@@H]1CCC(N)=O | 495 | 564 | 595
3 | CC(C)(C#N)c1cc(Cn2cncn2)cc(C(C)(C)C#N)c1 | 461 | 537 | 574
4 | N=C(N)NN.N=C(N)NN.O=S(=O)(O)O | 503 | 524 | 559
5 | CCCCNc1ncc(-c2ccc(CN3CCOCC3)cn2)c(N[C@H]2CC[C@H](O)CC2)n1 | 612 | 623 | 721
6 | COc1cc2c(cc1OC)CN(CCc1ccc(NC(=O)c3cccc4c(=O)c5cccc(OC)c5[nH]c34)cc1)CC2 | 575 | 567 | 621
7 | COc1ccc(CC2SC(=O)NC2=O)cc1C(=O)NCc1ccc(C(F)(F)F)cc1 (centres undefined) | 570 | 585 | 645
8 | OC1=CC2=C(C(=O)\C=C(/O2)C3=CC=CC=C3)C(=C1O)O | 458 | 489 | 462
9 | CNCCN(C)Cc1c[nH]nc1-c1ccc(O[C@H]2C[C@H](OCCC3CCOCC3)C2)cc1 | 520 | 546 | 512
10 | COc1ccc2cc([C@H](C)C(=O)O)ccc2c1 | 503 | 524 | 510
11 | CC(/C=C1\SC(=S)N(CC(=O)O)C1=O)=C\c1ccccc1 | 494 | 492 | 594
12 | CCC(CC)CC1(C(=O)Nc2ccccc2SC(=O)C(C)C)CCCCC1 | 519 | 537 | 593
13 | CCCCOC(=O)N[S+](=O)([O-])c1sc(CC(C)C)cc1-c1ccc(Cn2ccnc2)cc1 | 357 | 460 | 412
14 | CN1CCC(CC1)COC2=CN=C(N=C2)C3=CC(=CC=C3)CN4/N=C(\C=C/C4=O)C5=CC(=CC=C5)C#N | 474 | 549 | 596
15 | COC1=C(OCCCOC2=C(OC)C=C3C(=O)N4CC(=C)C[C@H]4\C=N/C3=C2)C=C5\N=C/[C@@H]6CC(=C)CN6C(=O)C5=C1 | 320 | 444 | 404
16 | N[C@@H]1CN(CC12CC2)C3=C(F)C=C4C(=O)\C(=C/N([C@@H]5C[C@@H]5F)C4=C3Cl)C(O)=O | 390 | 381 | 426
17 | O=C(N[C@H]1CN2CCC1CC2)c1ccc(Cl)cc1 | 495 | 554 | 616
18 | COc1cc(-c2cc(-c3ccc(N4CCNCC4)cc3)cnc2C)cc(OC)c1OC | 548 | 556 | 585
19 | CCC(=O)O[C@@]1(CC[C@H]2[C@@H]3CCC/4=C/C(=O)CC[C@]4(C)[C@H]3CC[C@]12C)C(=O)CO | 508 | 518 | 585

Row | SMILES | area under concentration-response curve (CU-ACC1) | area under concentration-response curve (NCI-H295R) | area under concentration-response curve (CU-ACC2)
20 | NC/1=N/C(=O)N(C[C@@H](CO)OC[P](O)(O)=O)/C=C1 | 465 | 496 | 522
21 | N#Cc1c(N(CC(=O)[O-])CC(=O)[O-])sc(C(=O)[O-])c1CC(=O)[O-] | 478 | 497 | 544
22 | N[C@@H](Cc1cc(I)c(Oc2cc(I)c(O)c(I)c2)c(I)c1)C(=O)O | 548 | 564 | 620
23 | CN1C(=O)\C(=C/C(=C1/NC2=C(F)C=C(I)C=C2)C(=O)NOCCO)C | 335 | 550 | 519
24 | FC(F)(F)c1ccc(/C=C/c2nc(COc3ccc(CCCCn4ccnn4)cc3)co2)cc1 | 265 | 531 | 596
25 | FC1=CC=C(C=C1)N2/C=C\C=C(C(=O)NC3=CC=C(OC4=C5C=C[NH]C5=NC=C4)C(=C3)F)/C2=O | 588 | 535 | 616
26 | CCCC1=NC(=C2[N]1NC(=N\C2=O)/C3=CC(=CC=C3OCC)[S+]([O-])(=O)N4CCN(CC)CC4)C | 462 | 518 | 573
27 | CC[S+](=O)([O-])N1CCC([C@@H](C)n2c(C)c(/C(O)=N/Cc3c(OC)cc(C)nc3O)c3ccccc32)CC1 | 509 | 537 | 605
28 | C[C@H]1CNCCCN1[S+](=O)([O-])c1cccc2cncc(F)c12 | 530 | 551 | 589
29 | N#Cc1ccc(C2CCCc3cncn32)cc1 (centres undefined) | 503 | 479 | 544
30 | Cc1c(Cl)cccc1[S+](=O)([O-])Nc1nc(CCN2CCOCC2=O)cs1 | 483 | 520 | 583
31 | N#CN1CCC[C@@H](n2nc(-c3ccc(Oc4ccc(F)cc4F)cc3)c(C(N)=O)c2N)C1 | 487 | 553 | 607
32 | Cn1cc(-c2c[nH]c3ncnc(N4CCOCC4)c23)cn1 | 543 | 576 | 610
33 | O=C(O)Cn1nnc(-c2cc(N3CCC(Oc4cc(F)ccc4Br)CC3)no2)n1 | 491 | 515 | 594
34 | OC(=O)C(CC/1=C/C(=O)NC2=CC=CC=C12)NC(=O)C3=CC=C(Cl)C=C3 (centres undefined) | 521 | 483 | 610
35 | C[C@@H]1CN(Cc2ccc(F)cc2)[C@@H](C)CN1C(=O)c1cc2c(C(=O)C(=O)N(C)C)cn(C)c2cc1Cl | 515 | 552 | 634
36 | CN[C@@H](C)C(=O)N[C@H](C(=O)N1CCC[C@H]1C(=O)Nc1sc(-c2ncco2)nc1-c1ccccc1)C1CCCCC1 | 457 | 461 | 530
37 | CC1=CC(=O)c2ccccc2C1=O | 495 | 501 | 530
38 | CC(=O)O[C@H]1C[C@@H]2CC[C@@H]3[C@H](CC[C@@]4(C)[C@H]3C[C@H]([N+]3(C)CCCCC3)[C@@H]4OC(C)=O)[C@@]2(C)C[C@@H]1[N+]1(C)CCCCC1 | 501 | 505 | 584
